# According to ChEMBL document CHEMBL2203211, “Isocytosine-based inhibitors of xanthine oxidase: design, synthesis, SAR, PK and in vivo efficacy in rat model of hyperuricemia” (Bioorg Med Chem Lett, 2012):
# Active and inactive are the calls of the source. The calls are words filed in the database; no cut-off is given here.
# Experiments:
# [1] = biological target: Xanthine dehydrogenase/oxidase (Homo sapiens, UniProt P47989)
# Description: Inhibition of xanthine oxidase using xanthine as substrate at 30 mins by spectrophotometric analysis
# [2] = AUClast in rat at 50 mg/kg, ip; format: ADME, organism-based; parameters: time 0 - last, dose 50 mg/kg, route intraperitoneal; conditions: plasma
# [3] = AUC (0 to infinity) in rat at 50 mg/kg, ip; format: ADME, organism-based; parameters: time infinity, dose 50 mg/kg, route intraperitoneal; conditions: plasma
# [4] = Half life in rat at 50 mg/kg, ip; format: ADME, organism-based; parameters: dose 50 mg/kg, route intraperitoneal; conditions: in vivo
# Rattus norvegicus [5] = assay: Antihyperuricemic activity in fasted rat assessed as reduction in potassium oxonate-induced uric acid level in serum at 50 mg/kg, ip administered 1 hr post potassium oxonate-challenge relative to vehicle-treated control; format: functional; parameters: scale not given: the % may be the effect or the level left; conditions: route intraperitoneal
# [6] = Cmax in rat at 50 mg/kg, ip; format: ADME, organism-based; parameters: dose 50 mg/kg, route intraperitoneal; conditions: in vivo
# [7] = Tmax in rat at 50 mg/kg, ip; format: ADME, organism-based; parameters: dose 50 mg/kg, route intraperitoneal; conditions: in vivo
# [8] = AUC (0 to infinity) in rat at 100 mg/kg, po; format: ADME, organism-based; parameters: time infinity, dose 100 mg/kg, route oral; conditions: plasma
# [9] = Cmax in rat at 100 mg/kg, po; format: ADME, organism-based; parameters: dose 100 mg/kg, route oral; conditions: in vivo
# [10] = Half life in rat at 100 mg/kg, po; format: ADME, organism-based; parameters: dose 100 mg/kg, route oral; conditions: in vivo
# [11] = AUClast in rat at 100 mg/kg, po; format: ADME, organism-based; parameters: time 0 - last, dose 100 mg/kg, route oral; conditions: plasma
# [12] = Tmax in rat at 100 mg/kg, po; format: ADME, organism-based; parameters: dose 100 mg/kg, route oral; conditions: in vivo
# Rattus norvegicus [13] = assay: Antihyperuricemic activity in fasted rat assessed as reduction in potassium oxonate-induced uric acid level in serum at 100 mg/kg, ip administered 1 hr post potassium oxonate-challenge relative to vehicle-treated control; format: functional; parameters: scale not given: the % may be the effect or the level left; conditions: route intraperitoneal
# Rattus norvegicus [14] = assay: Antihyperuricemic activity in fasted rat assessed as reduction in potassium oxonate-induced uric acid level in serum at 10 mg/kg, po administered 1 hr post potassium oxonate-challenge relative to vehicle-treated control; format: functional; parameters: scale not given: the % may be the effect or the level left
# Rattus norvegicus [15] = assay: Antihyperuricemic activity in fasted rat assessed as reduction in potassium oxonate-induced uric acid level in serum at 200 mg/kg, po administered 1 hr post potassium oxonate-challenge relative to vehicle-treated control; format: functional, organism-based; parameters: dose 200 mg/kg
# Rattus norvegicus [16] = assay: Antihyperuricemic activity in fasted rat assessed as reduction in potassium oxonate-induced uric acid level in serum at 100 mg/kg, po administered 1 hr post potassium oxonate-challenge relative to vehicle-treated control; format: functional; parameters: scale not given: the % may be the effect or the level left
# Rattus norvegicus [17] = assay: Antihyperuricemic activity in fasted rat assessed as reduction in potassium oxonate-induced uric acid level in serum at 100 mg/kg, po administered 1 hr post potassium oxonate-challenge relative to allopurinol; format: functional
# [18] = Half life in rat at 2 mg/kg, iv; format: ADME, organism-based; parameters: dose 2 mg/kg, route intravenous; conditions: in vivo
# [19] = Tmax in rat at 2 mg/kg, iv; format: ADME, organism-based; parameters: dose 2 mg/kg, route intravenous; conditions: in vivo
# [20] = Clearance in rat at 2 mg/kg, iv; format: ADME, organism-based; parameters: dose 2 mg/kg, route intravenous; conditions: in vivo
# [21] = Cmax in rat at 2 mg/kg, iv; format: ADME, organism-based; parameters: dose 2 mg/kg, route intravenous; conditions: in vivo
# [22] = AUClast in rat at 10 mg/kg, po; format: ADME, organism-based; parameters: time 0 - last, dose 10 mg/kg, route oral; conditions: plasma
# [23] = Initial plasma concentration in rat at 2 mg/kg iv; format: ADME, organism-based; parameters: dose 2 mg/kg, route intravenous
# [24] = Half life in rat at 10 mg/kg, po; format: ADME, organism-based; parameters: dose 10 mg/kg, route oral; conditions: in vivo
# [25] = AUClast in rat at 2 mg/kg, iv; format: ADME, organism-based; parameters: time 0 - last, dose 2 mg/kg, route intravenous; conditions: plasma
# [26] = AUC (0 to infinity) in rat at 10 mg/kg, po; format: ADME, organism-based; parameters: time infinity, dose 10 mg/kg, route oral; conditions: plasma
# [27] = Volume of distribution in rat at 2 mg/kg, iv; format: ADME, organism-based; parameters: dose 2 mg/kg, route intravenous; conditions: in vivo
# [28] = AUC (0 to infinity) in rat at 2 mg/kg, iv; format: ADME, organism-based; parameters: time infinity, dose 2 mg/kg, route intravenous; conditions: plasma
# [29] = Tmax in rat at 10 mg/kg, po; format: ADME, organism-based; parameters: dose 10 mg/kg, route oral; conditions: in vivo
# [30] = Cmax in rat at 10 mg/kg, po; format: ADME, organism-based; parameters: dose 10 mg/kg, route oral; conditions: in vivo
# Sequence of Xanthine dehydrogenase/oxidase (P47989 whole entry): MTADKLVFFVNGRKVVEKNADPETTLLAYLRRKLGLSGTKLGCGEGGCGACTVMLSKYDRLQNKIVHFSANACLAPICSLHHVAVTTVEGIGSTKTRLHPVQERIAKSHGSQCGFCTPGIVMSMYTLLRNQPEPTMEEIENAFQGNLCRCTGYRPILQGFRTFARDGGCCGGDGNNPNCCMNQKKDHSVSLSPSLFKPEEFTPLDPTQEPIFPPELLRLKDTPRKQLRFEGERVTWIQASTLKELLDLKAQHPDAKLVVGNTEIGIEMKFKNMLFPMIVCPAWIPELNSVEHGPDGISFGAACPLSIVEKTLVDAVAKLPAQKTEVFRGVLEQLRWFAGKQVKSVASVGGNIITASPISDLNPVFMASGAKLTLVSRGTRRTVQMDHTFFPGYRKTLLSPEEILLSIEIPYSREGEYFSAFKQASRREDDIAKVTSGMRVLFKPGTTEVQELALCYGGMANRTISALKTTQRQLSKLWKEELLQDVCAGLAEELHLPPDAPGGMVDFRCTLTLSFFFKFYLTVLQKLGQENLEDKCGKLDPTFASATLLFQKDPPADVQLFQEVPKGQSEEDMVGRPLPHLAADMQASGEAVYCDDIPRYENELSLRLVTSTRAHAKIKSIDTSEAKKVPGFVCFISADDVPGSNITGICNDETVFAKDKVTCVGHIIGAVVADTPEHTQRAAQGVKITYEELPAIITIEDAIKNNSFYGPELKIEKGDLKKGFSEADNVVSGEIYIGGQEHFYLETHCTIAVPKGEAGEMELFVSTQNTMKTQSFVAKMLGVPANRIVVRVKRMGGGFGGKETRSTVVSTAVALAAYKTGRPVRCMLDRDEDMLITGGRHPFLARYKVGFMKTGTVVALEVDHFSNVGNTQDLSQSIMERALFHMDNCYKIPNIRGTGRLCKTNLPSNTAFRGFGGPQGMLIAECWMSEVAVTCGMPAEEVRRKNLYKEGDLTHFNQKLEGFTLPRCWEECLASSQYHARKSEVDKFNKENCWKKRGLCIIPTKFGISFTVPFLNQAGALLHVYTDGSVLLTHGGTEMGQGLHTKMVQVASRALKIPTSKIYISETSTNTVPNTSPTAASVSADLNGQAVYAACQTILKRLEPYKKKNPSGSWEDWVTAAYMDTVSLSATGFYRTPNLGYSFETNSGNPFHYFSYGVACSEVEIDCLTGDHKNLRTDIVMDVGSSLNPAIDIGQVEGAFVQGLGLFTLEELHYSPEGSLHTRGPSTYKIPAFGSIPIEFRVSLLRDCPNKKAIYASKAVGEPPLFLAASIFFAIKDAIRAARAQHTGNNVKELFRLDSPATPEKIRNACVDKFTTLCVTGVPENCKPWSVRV
compound,measurement,setting,value
CC(C)COc1ccc(-c2cc(=O)[nH]c(N)n2)cc1OC(F)(F)F,IC50,[1],> 20000 nM
COc1cc(-c2cc(O)nc(N)n2)ccc1OCC(C)C,AUC(0-t),[2],27600 ng·h/mL
same,AUC(0-inf),[3],27700 ng·h/mL
same,half-life,[4],0.85 h
same,IC50,[1],950 nM
same,Activity,Rattus norvegicus [5],55%
same,Cmax,[6],34.3 µM
same,Tmax,[7],2 h
COc1ccc(-c2cc(=O)[nH]c(N)n2)cc1,AUC(0-inf),[8],4110 ng·h/mL
same,Cmax,[9],23.5 µM
same,half-life,[10],6.59 h
same,AUC(0-t),[11],4080 ng·h/mL
same,Tmax,[12],0.25 h
CC(C)Cc1ccc(-c2cc(O)nc(N)n2)cc1,IC50,[1],4950 nM
Oc1ncnc2[nH]ncc12 [ALLOPURINOL],Activity,Rattus norvegicus [13],177%
same,Activity,Rattus norvegicus [14],130%
CC(C)COc1ccc(-c2cc(O)nc(N)n2)cc1C#N,Activity,Rattus norvegicus [13],124%
same,Activity,Rattus norvegicus [15],inactive
CCCCSc1ccc(-c2cc(=O)[nH]c(N)n2)cc1,IC50,[1],1630 nM
CC(C)COc1ccc(-c2cc(=O)[nH]c(N)n2)cc1N,IC50,[1],6720 nM
Nc1nc(-c2ccc(-c3ccccc3)cc2)cc(=O)[nH]1,AUC(0-inf),[8],890 ng·h/mL
same,AUC(0-t),[2],21900 ng·h/mL
same,Cmax,[9],0.81 µM
same,AUC(0-inf),[3],23100 ng·h/mL
same,half-life,[4],5.52 h
same,half-life,[10],2.85 h
same,AUC(0-t),[11],600 ng·h/mL
same,Cmax,[6],7.13 µM
same,Tmax,[7],3.33 h
same,Tmax,[12],0.88 h
CC(C)COc1ccc(-c2cc(O)nc(N)n2)cc1[N+](=O)[O-],Activity,Rattus norvegicus [13],133%
same,AUC(0-t),[2],14000 ng·h/mL
same,Activity,Rattus norvegicus [16],93%
same,AUC(0-inf),[3],17600 ng·h/mL
same,half-life,[4],12.2 h
same,IC50,[1],140 nM
same,Cmax,[6],9.59 µM
same,Tmax,[7],2 h
Nc1nc(O)cc(-c2ccc(OCCCO)cc2)n1,IC50,[1],9240 nM
Cc1nc(-c2ccc(OCC(C)C)c(C#N)c2)sc1C(=O)O [FEBUXOSTAT],Activity,Rattus norvegicus [13],181%
same,IC50,[1],30 nM
same,Activity,Rattus norvegicus [14],180%
Nc1nc(-c2ccc(O)cc2)cc(=O)[nH]1,IC50,[1],> 30000 nM
CC(C)Sc1ccc(-c2cc(O)nc(N)n2)cc1,IC50,[1],2440 nM
Nc1nc(O)cc(-c2ccc(N3CCOCC3)cc2)n1,IC50,[1],16500 nM
CC(C)COc1ccc(-c2cc(=O)[nH]c(N)n2)cc1C(N)=O,IC50,[1],1920 nM
CCCCOc1ccc(-c2cc(=O)[nH]c(N)n2)cc1,IC50,[1],2100 nM
Nc1nc(O)cc(-c2ccc(Oc3ccccc3)cc2)n1,IC50,[1],2470 nM
CC(C)COc1ccc(-c2cc(O)nc(N)n2)cc1,AUC(0-inf),[8],5680 ng·h/mL
same,Activity,Rattus norvegicus [13],77%
same,Cmax,[9],5.16 µM
same,Activity,Rattus norvegicus [16],23.7%
same,half-life,[10],3.42 h
same,Efficacy,Rattus norvegicus [17],18%
same,AUC(0-t),[11],4390 ng·h/mL
same,Tmax,[12],0.5 h
CC(C)COc1ccc(-c2cc(=O)[nH]c(N)n2)cc1C#N,half-life,[18],0.63 h
same,Tmax,[19],1.8 min
same,clearance,[20],71.3 mL/min/kg
same,Cmax,[21],4.19 µM
same,AUC(0-t),[22],200 ng·h/mL
same,C0,[23],1360 ng/mL
same,half-life,[24],11.4 h
same,AUC(0-t),[25],470 ng·h/mL
same,AUC(0-inf),[26],310 ng·h/mL
same,Vd,[27],3.83 L/kg
same,AUC(0-inf),[28],480 ng·h/mL
same,Tmax,[29],0.19 h
same,Cmax,[30],0.23 µM
